In ChEMBL document CHEMBL2016493, “Design, synthesis, synergistic antimicrobial activity and cytotoxicity of 4-aryl substituted 3,4-dihydropyrimidinones of curcumin” (Bioorg Med Chem Lett, 2012):
Activity calls are given as the source filed them. No cut-off for these calls is given here.

What was measured:
Aspergillus flavus [1] = assay: Antifungal activity against Aspergillus flavus MTCC 1021 at 80 uM/ml after 48 hrs by paper disc diffusion method; type: functional
Staphylococcus aureus [2] = assay: Antibacterial activity against Staphylococcus aureus ATCC 11632 at 40 uM/ml after 24 hrs by kirby-bauer method; type: functional
Trichoderma viride [3] = assay: Antifungal activity against Trichoderma viride MTCC 1107 at 160 uM/ml after 48 hrs by paper disc diffusion method; type: functional; conditions: MTCC 1107, 48 h, read-out: IZ
Curvularia lunata [4] = assay: Antifungal activity against Curvularia lunata MTCC 581 at 20 uM/ml after 48 hrs by paper disc diffusion method; type: functional; conditions: for zone of inhibition at 20 µM: MTCC 581, 48 h, read-out: IZ
Escherichia coli [5] = assay: Antibacterial activity against Escherichia coli ATCC 35218 at 160 uM/ml after 24 hrs by kirby-bauer method; type: functional; conditions: for zone of inhibition at 160 µM: ATCC 35218, 24 h, read-out: IZ
Aspergillus flavus [6] = assay: Antifungal activity against Aspergillus flavus MTCC 1021 at 40 uM/ml after 48 hrs by paper disc diffusion method; type: functional
Aspergillus niger [7] = assay: Antifungal activity against Aspergillus niger MTCC 1108 at 160 uM/ml after 48 hrs by paper disc diffusion method; type: functional; conditions: MTCC 1108, 48 h, read-out: IZ
Aspergillus niger [8] = assay: Antifungal activity against Aspergillus niger MTCC 1108 at 80 uM/ml after 48 hrs by paper disc diffusion method; type: functional; conditions: for zone of inhibition at 80 µM: MTCC 1108, 48 h, read-out: IZ
[9] = system: Burkholderia pseudomallei; assay: Antibacterial activity against Burkholderia pseudomallei NTCC 10274 at 80 uM/ml after 24 hrs by kirby-bauer method; type: functional; conditions: NTCC 10274, 24 h, read-out: IZ
Salmonella typhimurium [10] = assay: Antibacterial activity against Salmonella typhimurium ATCC 23564 at 160 uM/ml after 24 hrs by kirby-bauer method; type: functional, Salmonella enterica subsp. enterica serovar Typhimurium; conditions: Salmonella enterica, ATCC 23564, 24 h; read-out: IZ
Staphylococcus aureus [11] = assay: Antibacterial activity against Staphylococcus aureus ATCC 11632 at 160 uM/ml after 24 hrs by kirby-bauer method; type: functional; conditions: ATCC 11632, 24 h, read-out: IZ
Curvularia lunata [12] = assay: Antifungal activity against Curvularia lunata MTCC 581 at 40 uM/ml after 48 hrs by paper disc diffusion method; type: functional; conditions: MTCC 581, 48 h, read-out: IZ
Aspergillus niger [13] = assay: Antifungal activity against Aspergillus niger MTCC 1108 at 20 uM/ml after 48 hrs by paper disc diffusion method; type: functional
Staphylococcus aureus [14] = assay: Antibacterial activity against Staphylococcus aureus ATCC 11632 at 20 uM/ml after 24 hrs by kirby-bauer method; type: functional
Escherichia coli [15] = assay: Antibacterial activity against Escherichia coli ATCC 35218 at 20 uM/ml after 24 hrs by kirby-bauer method; type: functional
Trichoderma viride [16] = assay: Antifungal activity against Trichoderma viride MTCC 1107 at 20 uM/ml after 48 hrs by paper disc diffusion method; type: functional
Pseudomonas aeruginosa [17] = assay: Antibacterial activity against Pseudomonas aeruginosa ATCC 15499 at 40 uM/ml after 24 hrs by kirby-bauer method; type: functional; conditions: for zone of inhibition at 40 µM: ATCC 15499, 24 h, read-out: IZ
Staphylococcus aureus [18] = assay: Antibacterial activity against Staphylococcus aureus ATCC 11632 at 80 uM/ml after 24 hrs by kirby-bauer method; type: functional; conditions: ATCC 11632, 24 h, read-out: IZ
Pseudomonas aeruginosa [19] = assay: Antibacterial activity against Pseudomonas aeruginosa ATCC 15499 at 160 uM/ml after 24 hrs by kirby-bauer method; type: functional; conditions: ATCC 15499, 24 h, read-out: IZ
[20] = system: Burkholderia pseudomallei; assay: Antibacterial activity against Burkholderia pseudomallei NTCC 10274 at 20 uM/ml after 24 hrs by kirby-bauer method; type: functional; conditions: for zone of inhibition at 20 µM: NTCC 10274, 24 h, read-out: IZ
Salmonella typhimurium [21] = assay: Antibacterial activity against Salmonella typhimurium ATCC 23564 at 40 uM/ml after 24 hrs by kirby-bauer method; type: functional, Salmonella enterica subsp. enterica serovar Typhimurium; conditions: for inhibition zone (IZ): Salmonella enterica subsp. enterica serovar Typhimurium
Trichoderma viride [22] = assay: Antifungal activity against Trichoderma viride MTCC 1107 at 40 uM/ml after 48 hrs by paper disc diffusion method; type: functional; conditions: MTCC 1107, 48 h, read-out: IZ
Aspergillus niger [23] = assay: Antifungal activity against Aspergillus niger MTCC 1108 at 40 uM/ml after 48 hrs by paper disc diffusion method; type: functional; conditions: for zone of inhibition at 40 µM: MTCC 1108, 48 h, read-out: IZ
Pseudomonas aeruginosa [24] = assay: Antibacterial activity against Pseudomonas aeruginosa ATCC 15499 at 80 uM/ml after 24 hrs by kirby-bauer method; type: functional; conditions: ATCC 15499, 24 h, read-out: IZ
Aspergillus flavus [25] = assay: Antifungal activity against Aspergillus flavus MTCC 1021 at 20 uM/ml after 48 hrs by paper disc diffusion method; type: functional
[26] = system: Burkholderia pseudomallei; assay: Antibacterial activity against Burkholderia pseudomallei NTCC 10274 at 40 uM/ml after 24 hrs by kirby-bauer method; type: functional; conditions: for zone of inhibition at 40 µM: NTCC 10274, 24 h, read-out: IZ
Trichoderma viride [27] = assay: Antifungal activity against Trichoderma viride MTCC 1107 at 80 uM/ml after 48 hrs by paper disc diffusion method; type: functional; conditions: MTCC 1107, 48 h, read-out: IZ
Salmonella typhimurium [28] = assay: Antibacterial activity against Salmonella typhimurium ATCC 23564 at 80 uM/ml after 24 hrs by kirby-bauer method; type: functional, Salmonella enterica subsp. enterica serovar Typhimurium; conditions: for zone of inhibition at 80 µM: Salmonella enterica, ATCC 23564, 24 h, read-out: IZ
Escherichia coli [29] = assay: Antibacterial activity against Escherichia coli ATCC 35218 at 80 uM/ml after 24 hrs by kirby-bauer method; type: functional; conditions: ATCC 35218, 24 h, read-out: IZ
QG-56 = assay: Cytotoxicity against human QG56 cells after 48 hrs by MTT assay; type: functional, cell-based
Curvularia lunata [30] = assay: Antifungal activity against Curvularia lunata MTCC 581 at 160 uM/ml after 48 hrs by paper disc diffusion method; type: functional; conditions: MTCC 581, 48 h, read-out: IZ
Aspergillus flavus [31] = assay: Antifungal activity against Aspergillus flavus MTCC 1021 at 160 uM/ml after 48 hrs by paper disc diffusion method; type: functional; conditions: MTCC 1021, 48 h, read-out: IZ
Salmonella typhimurium [32] = assay: Antibacterial activity against Salmonella typhimurium ATCC 23564 at 20 uM/ml after 24 hrs by kirby-bauer method; type: functional; conditions: Salmonella enterica subsp. enterica serovar Typhimurium
[33] = system: Burkholderia pseudomallei; assay: Antibacterial activity against Burkholderia pseudomallei NTCC 10274 at 160 uM/ml after 24 hrs by kirby-bauer method; type: functional; conditions: NTCC 10274, 24 h, read-out: IZ
Escherichia coli [34] = assay: Antibacterial activity against Escherichia coli ATCC 35218 at 40 uM/ml after 24 hrs by kirby-bauer method; type: functional
Pseudomonas aeruginosa [35] = assay: Antibacterial activity against Pseudomonas aeruginosa ATCC 15499 at 20 uM/ml after 24 hrs by kirby-bauer method; type: functional
Curvularia lunata [36] = assay: Antifungal activity against Curvularia lunata MTCC 581 at 80 uM/ml after 48 hrs by paper disc diffusion method; type: functional; conditions: MTCC 581, 48 h, read-out: IZ

Row | SMILES | zone of inhibition at 160 µM (Trichoderma viride [3]) [mm] | inhibition zone (IZ) (Aspergillus flavus [6]) | zone of inhibition at 160 µM (Aspergillus niger [7]) [mm] | zone of inhibition at 80 µM [9] [mm] | zone of inhibition at 160 µM (Salmonella typhimurium [10]) [mm] | zone of inhibition at 160 µM (Staphylococcus aureus [11]) [mm] | zone of inhibition at 40 µM (Curvularia lunata [12]) [mm] | zone of inhibition at 80 µM (Staphylococcus aureus [18]) [mm] | zone of inhibition at 160 µM (Pseudomonas aeruginosa [19]) [mm] | zone of inhibition (Trichoderma viride [22]) [mm] | zone of inhibition at 80 µM (Pseudomonas aeruginosa [24]) [mm] | IC50 (HCT-116) [uM/ml] | inhibition zone (IZ) (Aspergillus flavus [25]) | zone of inhibition at 80 µM (Trichoderma viride [27]) [mm] | IC50 (QG-56) [uM/ml] | zone of inhibition at 160 µM (Curvularia lunata [30]) [mm] | zone of inhibition at 160 µM (Aspergillus flavus [31]) [mm] | inhibition zone (IZ) (Salmonella typhimurium [32]) | zone of inhibition at 160 µM [33] [mm] | IC50 (HepG2) [uM/ml] | other results
1 | COc1cc(/C=C/C(=O)C2=C(/C=C/c3ccc(O)c(OC)c3)NC(=S)NC2c2ccc(O)c(OC)c2)ccc1O (centres undefined) | 13 | inactive | 16 | 18 | 14 | 11 | 21 | 9 | 14 | 9 | 11 | 100 | inactive | 11 | 100 | 24 | 11 | inactive | 21 | 50 | inhibition zone (IZ) (Aspergillus flavus [1]): inactive; inhibition zone (IZ) (Staphylococcus aureus [2]): inactive; zone of inhibition at 20 µM (Curvularia lunata [4]): 19 mm; zone of inhibition at 160 µM (Escherichia coli [5]): 14 mm; zone of inhibition at 80 µM (Aspergillus niger [8]): 12 mm; zone of inhibition at 20 µM (Aspergillus niger [13]; MTCC 1108, 48 h, read-out: IZ): 9 mm; inhibition zone (IZ) (Staphylococcus aureus [14]): inactive; inhibition zone (IZ) (Escherichia coli [15]): inactive; inhibition zone (IZ) (Trichoderma viride [16]): inactive; zone of inhibition at 40 µM (Pseudomonas aeruginosa [17]): 9 mm; zone of inhibition at 20 µM [20]: 13 mm; zone of inhibition at 40 µM (Salmonella typhimurium [21]; Salmonella enterica, ATCC 23564, 24 h, read-out: IZ): 9 mm; zone of inhibition at 40 µM (Aspergillus niger [23]): 11 mm; zone of inhibition at 40 µM [26]: 16 mm; zone of inhibition at 80 µM (Salmonella typhimurium [28]): 12 mm; zone of inhibition at 80 µM (Escherichia coli [29]): 11 mm; zone of inhibition at 40 µM (Escherichia coli [34]; ATCC 35218, 24 h, read-out: IZ): 9 mm; inhibition zone (IZ) (Pseudomonas aeruginosa [35]): inactive; zone of inhibition at 80 µM (Curvularia lunata [36]): 22 mm
2 | COc1cc(/C=C/C(=O)C2=C(/C=C/c3ccc(O)c(OC)c3)NC(=O)NC2c2ccccc2)ccc1O (centres undefined) | 14 | inactive | 9 | 17 | 11 | 22 | 9 | 19 | 14 | 9 | 12 | 25 | inactive | 11 | 50 | 18 | 11 | inactive | 19 | 50 | zone of inhibition at 80 µM (Aspergillus flavus [1]; MTCC 1021, 48 h, read-out: IZ): 9 mm; zone of inhibition at 40 µM (Staphylococcus aureus [2]; ATCC 11632, 24 h, read-out: IZ): 17 mm; inhibition zone (IZ) (Curvularia lunata [4]): inactive; zone of inhibition at 160 µM (Escherichia coli [5]): 17 mm; inhibition zone (IZ) (Aspergillus niger [8]): inactive; inhibition zone (IZ) (Aspergillus niger [13]): inactive; zone of inhibition at 20 µM (Staphylococcus aureus [14]; ATCC 11632, 24 h, read-out: IZ): 14 mm; inhibition zone (IZ) (Escherichia coli [15]): inactive; inhibition zone (IZ) (Trichoderma viride [16]): inactive; zone of inhibition at 40 µM (Pseudomonas aeruginosa [17]): 9 mm; zone of inhibition at 20 µM [20]: 14 mm; inhibition zone (IZ) (Salmonella typhimurium [21]): inactive; inhibition zone (IZ) (Aspergillus niger [23]): inactive; zone of inhibition at 40 µM [26]: 16 mm; zone of inhibition at 80 µM (Salmonella typhimurium [28]): 8 mm; zone of inhibition at 80 µM (Escherichia coli [29]): 9 mm; inhibition zone (IZ) (Escherichia coli [34]): inactive; inhibition zone (IZ) (Pseudomonas aeruginosa [35]): inactive; zone of inhibition at 80 µM (Curvularia lunata [36]): 12 mm
3 | COc1cc(/C=C/C(=O)C2=C(/C=C/c3ccc(O)c(OC)c3)NC(=S)NC2c2ccc([N+](=O)[O-])cc2)ccc1O (centres undefined) | 22 | inactive | 13 | 9 | 10 | 12 | 17 | 10 | 10 | 18 | 9 | 100 | inactive | 21 | 50 | 21 | 11 | inactive | 11 | 50 | inhibition zone (IZ) (Aspergillus flavus [1]): inactive; inhibition zone (IZ) (Staphylococcus aureus [2]): inactive; zone of inhibition at 20 µM (Curvularia lunata [4]): 14 mm; inhibition zone (IZ) (Escherichia coli [5]): inactive; zone of inhibition at 80 µM (Aspergillus niger [8]): 11 mm; inhibition zone (IZ) (Aspergillus niger [13]): inactive; inhibition zone (IZ) (Staphylococcus aureus [14]): inactive; zone of inhibition at 20 µM (Trichoderma viride [16]; MTCC 1107, 48 h, read-out: IZ): 17 mm; inhibition zone (IZ) (Pseudomonas aeruginosa [17]): inactive; inhibition zone (IZ) [20]: inactive; inhibition zone (IZ) (Salmonella typhimurium [21]): inactive; zone of inhibition at 40 µM (Aspergillus niger [23]): 9 mm; inhibition zone (IZ) [26]: inactive; inhibition zone (IZ) (Salmonella typhimurium [28]; Salmonella enterica subsp. enterica serovar Typhimurium): inactive; inhibition zone (IZ) (Pseudomonas aeruginosa [35]): inactive; zone of inhibition at 80 µM (Curvularia lunata [36]): 19 mm
